Measured values reported in article PMC8223498 (Journal of Fluorine Chemistry, 2021).

Assays:
Format in all cases: biochemical
[1] = biological target: T1, human N-terminally His6-tagged AspH315–758 (Homo sapiens, UniProt Q12797); assay: SPE-MS inhibition assay, AspH (peptide hydroxylation); settings: 0.05 μM His6-AspH315–758, 1.0 μM hFX-CP101–119 peptide, n = 2, mean ± SD
T1 sequence (Q12797 315-758): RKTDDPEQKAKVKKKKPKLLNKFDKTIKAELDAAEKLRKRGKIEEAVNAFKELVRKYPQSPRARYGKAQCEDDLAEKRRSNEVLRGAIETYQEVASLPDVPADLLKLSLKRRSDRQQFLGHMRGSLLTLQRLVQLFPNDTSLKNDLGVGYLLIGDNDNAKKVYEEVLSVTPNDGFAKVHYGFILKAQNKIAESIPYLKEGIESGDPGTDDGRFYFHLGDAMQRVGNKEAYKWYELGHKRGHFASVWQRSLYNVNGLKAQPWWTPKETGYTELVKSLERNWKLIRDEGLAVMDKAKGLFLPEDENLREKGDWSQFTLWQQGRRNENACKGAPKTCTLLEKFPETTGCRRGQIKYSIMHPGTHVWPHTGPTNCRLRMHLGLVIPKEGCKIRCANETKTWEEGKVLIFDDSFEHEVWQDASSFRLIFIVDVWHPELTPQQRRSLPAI
Method: (§1) KDM4E was used as a representative JmjC KDM; it catalyzes the demethylation of histone 3 (H3) N^ε-di- and trimethylated Lys9 (H3K9me3/me2), [11], [12].
(§2) 2OG oxygenases were produced and purified as described in the cited literature, the peptide substrate for AspH was synthesized according to the cited literature while the peptide substrates for FIH and KDM4E were obtained from GL Biochem (Shanghai) Ltd (Shanghai, China). All peptide were prepared with C-terminal amides.

KDM4E = biological target: T2, KDM4E (Homo sapiens, UniProt B2RXH2); assay: SPE-MS inhibition assay, KDM4E (peptide demethylation); settings: 10.0 μM H3_1–15K9me3, n = 2, mean ± SD, inactive = no inhibition at 100 – 0.002 μM
T2 sequence (B2RXH2 1-506): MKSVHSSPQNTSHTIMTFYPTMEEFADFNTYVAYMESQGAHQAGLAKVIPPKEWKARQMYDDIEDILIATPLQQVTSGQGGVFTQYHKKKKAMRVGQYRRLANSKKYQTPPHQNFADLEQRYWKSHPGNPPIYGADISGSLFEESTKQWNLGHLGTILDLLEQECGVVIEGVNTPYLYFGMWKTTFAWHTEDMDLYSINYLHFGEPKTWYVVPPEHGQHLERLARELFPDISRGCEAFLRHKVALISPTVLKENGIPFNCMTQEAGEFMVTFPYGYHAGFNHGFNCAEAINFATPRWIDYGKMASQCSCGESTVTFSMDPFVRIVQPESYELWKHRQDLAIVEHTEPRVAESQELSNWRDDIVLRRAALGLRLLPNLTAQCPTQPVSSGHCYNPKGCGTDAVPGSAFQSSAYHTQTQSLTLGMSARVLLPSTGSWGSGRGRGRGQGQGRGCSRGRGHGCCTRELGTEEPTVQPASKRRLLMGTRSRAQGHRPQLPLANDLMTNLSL
Method: as §1, §2

[2] = biological target: recombinant human N-terminally His6-tagged RIOX2_26–465 (Homo sapiens, UniProt Q8IUF8); assay: SPE-MS inhibition assay, RIOX2 (peptide hydroxylation); settings: n = 2, mean ± SD, inactive = no inhibition at 100 – 0.002 μM; for IC50: 0.15 μM His6-RIOX2_26–465, 5.0 μM RPL27A31–49 peptide; for IC50 RIOX2: […] His6-RIOX2_26–465, 5.0 μM RPL27A31–49 peptide
recombinant human N-terminally His6-tagged RIOX2_26–465, sequence (Q8IUF8 26-465): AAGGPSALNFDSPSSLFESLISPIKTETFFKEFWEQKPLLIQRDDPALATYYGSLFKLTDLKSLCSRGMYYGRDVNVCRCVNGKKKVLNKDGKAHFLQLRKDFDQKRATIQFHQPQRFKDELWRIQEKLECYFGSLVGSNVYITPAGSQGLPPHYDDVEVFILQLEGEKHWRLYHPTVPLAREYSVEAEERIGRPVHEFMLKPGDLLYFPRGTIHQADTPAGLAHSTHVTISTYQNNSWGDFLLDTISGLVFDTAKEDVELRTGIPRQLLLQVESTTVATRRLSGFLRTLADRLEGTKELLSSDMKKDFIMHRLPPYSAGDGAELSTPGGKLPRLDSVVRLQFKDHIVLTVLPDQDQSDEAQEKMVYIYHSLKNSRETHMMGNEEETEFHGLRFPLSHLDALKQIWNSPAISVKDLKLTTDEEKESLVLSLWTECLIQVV

[3] = biological target: T3, N-terminally His6-tagged FIH (Homo sapiens, UniProt Q9NWT6); assay: SPE-MS inhibition assay, FIH (peptide hydroxylation); settings: 5.0 μM HIF-1α CAD (788–822), n = 2, mean ± SD, inactive = no inhibition at 100 – 0.002 μM
T3 construct: His6 (N); made in house
T3 sequence (Q9NWT6 whole entry): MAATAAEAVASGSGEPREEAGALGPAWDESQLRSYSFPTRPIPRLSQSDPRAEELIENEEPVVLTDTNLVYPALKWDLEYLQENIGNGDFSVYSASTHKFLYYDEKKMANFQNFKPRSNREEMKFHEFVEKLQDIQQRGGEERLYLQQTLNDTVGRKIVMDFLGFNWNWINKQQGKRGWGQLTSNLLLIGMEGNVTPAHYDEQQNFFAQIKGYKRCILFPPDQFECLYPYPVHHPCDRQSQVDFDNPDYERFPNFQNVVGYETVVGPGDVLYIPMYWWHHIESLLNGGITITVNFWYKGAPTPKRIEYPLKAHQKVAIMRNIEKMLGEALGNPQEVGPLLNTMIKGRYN
Method: as §1, §2

SMILES | IC50 [1] | IC50 (KDM4E) | IC50 [2] | IC50 [3] | IC50 KDM4E (KDM4E) | IC50 RIOX2 [2] | IC50 FIH [3]
O=C(O)c1ccnc(C(=O)O)c1 [2,4-PDCA, pyridine-2,4-dicarboxylate, reference compound] | ~30 nM | – | – | – | – | – | –
O=C(O)c1ccnc(C(=O)O)c1F [compound 7, 3-Fluoropyridine-2,4-dicarboxylic acid] | 110 ± 10 nM | 1300 ± 200 nM | > 50000 nM | > 50000 nM | – | – | –
O=C(O)c1cc(C(=O)O)c(F)cn1 [compound 8, 5-Fluoropyridine-2,4-dicarboxylic acid] | 50 ± 10 nM | 1600 ± 300 nM | > 50000 nM | > 50000 nM | – | – | –
O=C(O)c1ccnc(C(=O)O)c1C(F)(F)F [compound 13, 3-Trifluoromethylpyridine-2,4-dicarboxylic acid] | > 50000 nM | – | – | – | ^d)inactive | ^d)inactive | ^d)inactive
O=C(O)c1cc(C(=O)O)c(C(F)(F)F)cn1 [compound 14, 5-Trifluoromethylpyridine-2,4-dicarboxylic acid] | 4200 ± 1000 nM | – | – | – | ^d)inactive | ^d)inactive | ^d)inactive
